Laboratory results reported in US20240150301A1, “METHODS OF MODULATING ANDROGEN RECEPTOR CONDENSATES” (ETERN BIOPHARMA (SHANGHAI) CO., LTD., priority 2021, published 2024).
Residue numbers refer to the chain shown, from its start. Entries after “also recorded” stand apart in the source; their conditions may differ.

Experiments:
AR = molecular target: T1, AR (Homo sapiens, UniProt P10275); test: Live-cell imaging of AR puncta (LLPS) in LNCaP cells, AR-mEGFP; assay type: cell-based; settings: 10 μM compound, 1 nM DHT
T1 construct: expressed in transfected cells; host or cells: LNCaP
T1 sequence (P10275 1-920): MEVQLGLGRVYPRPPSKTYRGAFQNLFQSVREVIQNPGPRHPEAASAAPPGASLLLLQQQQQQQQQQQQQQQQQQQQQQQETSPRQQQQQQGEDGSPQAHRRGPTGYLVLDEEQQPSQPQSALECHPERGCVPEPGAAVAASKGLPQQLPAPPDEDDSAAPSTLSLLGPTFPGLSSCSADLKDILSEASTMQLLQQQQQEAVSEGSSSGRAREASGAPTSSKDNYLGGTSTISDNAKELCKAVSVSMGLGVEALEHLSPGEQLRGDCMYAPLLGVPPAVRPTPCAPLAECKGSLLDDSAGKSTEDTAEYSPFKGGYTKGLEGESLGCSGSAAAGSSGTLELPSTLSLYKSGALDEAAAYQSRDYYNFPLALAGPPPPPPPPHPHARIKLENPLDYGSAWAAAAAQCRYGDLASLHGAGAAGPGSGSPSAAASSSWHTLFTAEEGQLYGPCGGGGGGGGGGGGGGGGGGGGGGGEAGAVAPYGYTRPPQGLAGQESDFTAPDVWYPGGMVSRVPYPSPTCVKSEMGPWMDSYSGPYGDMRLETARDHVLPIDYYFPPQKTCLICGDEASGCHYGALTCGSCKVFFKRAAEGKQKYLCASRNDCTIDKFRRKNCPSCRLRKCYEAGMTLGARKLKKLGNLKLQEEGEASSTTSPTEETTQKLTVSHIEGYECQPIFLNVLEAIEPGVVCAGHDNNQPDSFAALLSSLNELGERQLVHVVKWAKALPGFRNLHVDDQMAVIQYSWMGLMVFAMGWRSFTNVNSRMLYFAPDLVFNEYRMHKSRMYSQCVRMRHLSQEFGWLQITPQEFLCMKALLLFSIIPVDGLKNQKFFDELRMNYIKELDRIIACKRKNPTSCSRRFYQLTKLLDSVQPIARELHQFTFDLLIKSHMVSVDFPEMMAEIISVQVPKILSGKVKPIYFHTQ
Description: (§1) Cells were grown on 24-well glass bottom plate (Cellvis, P24-1.5H-N) and images were taken with the Leica TCS SP8 confocal microscopy system using a 100× oil objective (NA=1.4). Cells were imaged on a heated stage (37° C.) and supplemented with warmed (37° C.) humidified air. The microscope was enclosed in an incubation chamber heated to 37° C.
(§2) For compounds treatment assay, LNCaP cells were transfected with an expression vector for AR (AR or AR F877L/T878A)-mEGFP using steroid hormone-free and phenol red-free RPMI media for 24 hours before compound treatment. After 10 μM compounds treatment for 3 hour, LNCaP cells were added with 1 nM DHT. For ligand-independent AR V7-mEGFP expressing LNCaP cells, starvation step is skipped and compounds were added 12 hours after transfection. The final concentration of DMSO was 0.1%. Cells were subjected to microscopic observation every 30 mins after DHT/compounds were added.
(§3) Data was analyzed by images collected from 100 representative fields in each group. The spots quantification was performed based on the area and intensity of the spots through green (AR-mEGFP) channel. Fluorescent images were processed and assembled into figures using LAS X (Leica) and Fiji.
(§4) After 10 μM compounds treatment for 3 hour, LNCaP cells were added with 1 nM DHT. […]

AR F877L/T878A = molecular target: T2, AR F877L/T878A (Homo sapiens, UniProt P10275, F877L/T878A); test: Live-cell imaging of AR puncta (LLPS) in LNCaP cells, AR F877L/T878A-mEGFP; assay type: cell-based; settings: 10 μM compound, 1 nM DHT
T2 construct: expressed in transfected cells; host or cells: LNCaP
T2 sequence (P10275 1-920 F877L/T878A): T1 sequence (P10275 1-920) with F877L, T878A
Description: as §1, §2, §3, §4

For `CC(C)(c1ccc(C#Cc2cnc(NS(C)(=O)=O)nc2)cc1)c1cc(Cl)c(OCCCl)c(C#N)c1` [Compound 60, N-(5-((4-(2-(3-chloro-4-(2-chloroethoxy)-5-cyanophenyl)propan-2-yl)phenyl)ethynyl)pyrimidin-2-yl)methanesulfonamide], the “puncta formation / LLPS of AR” value (AR) was “could suppress the phase separation; also recorded: abolished the puncta formation” and the “puncta formation / LLPS of enzalutamide-resistant AR mutant F877L/T878A” value (AR F877L/T878A) was “could suppress the phase separation; also recorded: abolished the puncta formation; also recorded: impaired the LLPS”.
